Measured values reported in patent US8309584B2, “Sulfur containing pyrazole-heterocycle derivatives as cannabinoid CB1 receptor antagonists” (Green Cross Corporation, priority 2008, dated 2012).

Molecular target: T1, rat CB-1 receptor (Rattus norvegicus, UniProt P20272)
T1 construct: The tissue obtained from the brain of SD rats was homogenized; from tissue; host or cells: SD rat brain membrane homogenate
Assay: rat cannabinoid-1 receptor (CB1R) binding affinity assay
Conditions: not given
Experimental: The tissue obtained from the brain of SD rats was homogenized with a Dounce homogenate system in TME(50 mM Tris, 3 mM MgCl2 and 1 mM EDTA, pH 7.4) at 4° C., and the homogenate was centrifuged at 48,000 g for 30 min. at 4° C. The pellet was resuspended in 5 ml of TME and the suspension was divided into aliquots and stored at −70° C. until its use in the following assay.
The tissue concentrations were determined by Bradford protein analysis, and 148 μl of brain tissue of the required concentration was added to the plate. The plate was covered and placed in a 30° C. incubator for 60 min, and then transformed on GF/B filtermat pretreated in polyethylenimine (PEI) using a cell harvester. Each filter was washed five times and dried at 60° C. for 1 hr. Then, the degree of radioactivity retained by the filter was measured using Wallac Microbeta™ (PerkinElmer Life Sciences, Inc., Massachusetts, U.S.A.) and the activity of the compound for inhibiting CB1 receptor was determined therefrom.

T1 sequence (P20272 whole entry): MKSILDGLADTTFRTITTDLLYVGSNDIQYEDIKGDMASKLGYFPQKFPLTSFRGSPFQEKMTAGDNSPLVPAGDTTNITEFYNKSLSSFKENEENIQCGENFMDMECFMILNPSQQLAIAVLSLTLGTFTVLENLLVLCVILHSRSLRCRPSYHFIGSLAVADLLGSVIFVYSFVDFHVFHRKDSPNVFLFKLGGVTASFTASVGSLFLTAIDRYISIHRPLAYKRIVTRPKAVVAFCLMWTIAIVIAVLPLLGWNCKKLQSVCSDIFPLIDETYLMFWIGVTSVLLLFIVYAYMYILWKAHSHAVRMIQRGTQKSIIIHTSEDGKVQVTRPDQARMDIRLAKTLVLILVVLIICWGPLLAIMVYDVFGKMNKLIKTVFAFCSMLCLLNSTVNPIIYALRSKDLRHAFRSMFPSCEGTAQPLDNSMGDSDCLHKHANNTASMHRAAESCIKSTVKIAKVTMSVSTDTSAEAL

Structure (SMILES)	IC50 [nM]
CSc1c(-c2nnc(C3(C(F)(F)F)CC3)o2)nn(-c2ccccc2Cl)c1-c1ccc(Br)cc1 [Example 14, 2-(5-(4-bromophenyl)-1-(2-chlorophenyl)-4-(methylthio)-1H-pyrazol-3-yl)-5-(1-(trifluoromethyl)cyclopropyl)-1,3,4-oxadiazole]	4.11
CSc1c(-c2nnc(C3(C(F)(F)F)CCC3)s2)nn(-c2ccc(Cl)cc2Cl)c1-c1ccc(Cl)cc1 [Example 23, 2-(5-(4-chlorophenyl)-1-(2,4-dichlorophenyl)-4-(methylthio)-1H-pyrazol-3-yl)-5-(1-(trifluoromethyl)cyclobutyl)-1,3,4-thiadiazole]	7.31
CSc1c(-c2nnc(C3(c4ccc(Cl)cc4)CC3)s2)nn(-c2ccc(Cl)cc2Cl)c1-c1ccc(Cl)cc1 [Example 24, 2-(5-(4-chlorophenyl)-1-(2,4-dichlorophenyl)-4-(methylthio)-1H-pyrazol-3-yl)-5-(1-(4-chlorophenyl)cyclopropyl)-1,3,4-thiadiazole]	6.66
CSc1c(-c2nnc(C3(C(F)(F)F)CCC3)s2)nn(-c2ccccc2Cl)c1-c1ccc(Br)cc1 [Example 35, 2-(5-(4-bromophenyl)-1-(2-chlorophenyl)-4-(methylthio)-1H-pyrazol-3-yl)-5-(1-(trifluoromethyl)cyclobutyl)-1,3,4-thiadiazole]	7.77

Same assay, conditions: [3H]CP-55940 radioligand, SD rat brain tissue homogenate, 30° C., 60 min; read-out: IC50

IC50 [nM]	Structure (SMILES)
10.9	CSc1c(-c2nnc(C3(C(F)(F)F)CC3)s2)nn(-c2ccc(Cl)cc2Cl)c1-c1ccc(Cl)cc1 [Example 22, 2-(5-(4-chlorophenyl)-1-(2,4-dichlorophenyl)-4-(methylthio)-1H-pyrazol-3-yl)-5-(1-(trifluoromethyl)cyclopropyl)-1,3,4-thiadiazole]
14.8	CSc1c(-c2nnc(C3(C(F)(F)F)CC3)s2)nn(-c2ccc(Cl)cc2Cl)c1-c1ccc(Br)cc1 [Example 30, 2-(5-(4-bromophenyl)-1-(2,4-dichlorophenyl)-4-(methylthio)-1H-pyrazol-3-yl)-5-(1-(trifluoromethyl)cyclopropyl)-1,3,4-thiadiazole]
5.7	CSc1c(-c2nnc(C(C)(C)C)s2)nn(-c2ccccc2Cl)c1-c1ccc(Br)cc1 [Example 33, 2-(5-(4-bromophenyl)-1-(2-chlorophenyl)-4-(methylthio)-1H-pyrazol-3-yl)-5-tert-butyl-1,3,4-thiadiazole]
17.1	CSc1c(-c2nnc(C3(C(F)(F)F)CC3)s2)nn(-c2ccccc2Cl)c1-c1ccc(Br)cc1 [Example 34, 2-(5-(4-bromophenyl)-1-(2-chlorophenyl)-4-(methylthio)-1H-pyrazol-3-yl)-5-(1-(trifluoromethyl)cyclopropyl)-1,3,4-thiadiazole]
30.4	C[S+]([O-])c1c(-c2nnc(C(C)(C)C)o2)nn(-c2ccc(Cl)cc2Cl)c1-c1ccc(Cl)cc1 (stereo not shown) [Example 41, 2-tert-butyl-5-(5-(4-chlorophenyl)-1-(2,4-dichlorophenyl)-4-(methylsulfinyl)-1H-pyrazol-3-yl)-1,3,4-oxadiazole]
24.6	C[S+]([O-])c1c(-c2nnc(C3(C(F)(F)F)CC3)o2)nn(-c2ccc(Cl)cc2Cl)c1-c1ccc(Cl)cc1 (stereo not shown) [Example 42, 2-(5-(4-chlorophenyl)-1-(2,4-dichlorophenyl)-4-(methylsulfinyl)-1H-pyrazol-3-yl)-5-(1-(trifluoromethyl)cyclopropyl)-1,3,4-oxadiazole]
8.92	C[S+]([O-])c1c(-c2nnc(C3(C(F)(F)F)CCC3)o2)nn(-c2ccc(Cl)cc2Cl)c1-c1ccc(Cl)cc1 (stereo not shown) [Example 43, 2-(5-(4-chlorophenyl)-1-(2,4-dichlorophenyl)-4-(methylsulfinyl)-1H-pyrazol-3-yl)-5-(1-(trifluoromethyl)cyclobutyl)-1,3,4-oxadiazole]
15.6	C[S+]([O-])c1c(-c2nnc(C(C)(C)C)o2)nn(-c2ccccc2Cl)c1-c1ccc(Br)cc1 (stereo not shown) [Example 53, 2-(5-(4-bromophenyl)-1-(2-chlorophenyl)-4-(methylsulfinyl)-1H-pyrazol-3-yl)-5-tert-butyl-1,3,4-oxadiazole]
6.51	C[S+]([O-])c1c(-c2nnc(C3(C(F)(F)F)CCC3)o2)nn(-c2ccccc2Cl)c1-c1ccc(Br)cc1 (stereo not shown) [Example 55, 2-(5-(4-bromophenyl)-1-(2-chlorophenyl)-4-(methylsulfinyl)-1H-pyrazol-3-yl)-5-(1-(trifluoromethyl)cyclobutyl)-1,3,4-oxadiazole]
19.1	C[S+]([O-])c1c(-c2nnc(C(C)(C)C)s2)nn(-c2ccc(Cl)cc2Cl)c1-c1ccc(Cl)cc1 (stereo not shown) [Example 60, 2-tert-butyl-5-(5-(4-chlorophenyl)-1-(2,4-dichlorophenyl)-4-(methylsulfinyl)-1H-pyrazol-3-yl)-1,3,4-thiadiazole]
11.3	C[S+]([O-])c1c(-c2nnc(C3(C(F)(F)F)CC3)s2)nn(-c2ccc(Cl)cc2Cl)c1-c1ccc(Cl)cc1 (stereo not shown) [Example 61, 2-(5-(4-chlorophenyl)-1-(2,4-dichlorophenyl)-4-(methylsulfinyl)-1H-pyrazol-3-yl)-5-(1-(trifluoromethyl)cyclopropyl)-1,3,4-thiadiazole]
4.12	C[S+]([O-])c1c(-c2nnc(C3(C(F)(F)F)CCC3)s2)nn(-c2ccc(Cl)cc2Cl)c1-c1ccc(Cl)cc1 (stereo not shown) [Example 62, 2-(5-(4-chlorophenyl)-1-(2,4-dichlorophenyl)-4-(methylsulfinyl)-1H-pyrazol-3-yl)-5-(1-(trifluoromethyl)cyclobutyl)-1,3,4-thiadiazole]

Continued, molecule first:

Structure (SMILES)	IC50 [nM]
CSc1c(-c2nnc(C(C)(C)C)o2)nn(-c2ccc(Cl)cc2Cl)c1-c1ccc(Cl)cc1 [Example 1, 2-tert-butyl-5-(5-(4-chlorophenyl)-1-(2,4-dichlorophenyl)-4-(methylthio)-1H-pyrazol-3-yl)-1,3,4-oxadiazole]	6.26
CSc1c(-c2nnc(C3(C(F)(F)F)CC3)o2)nn(-c2ccc(Cl)cc2Cl)c1-c1ccc(Cl)cc1 [Example 2, 2-(5-(4-chlorophenyl)-1-(2,4-dichlorophenyl)-4-(methylthio)-1H-pyrazol-3-yl)-5-(1-(trifluoromethyl)cyclopropyl)-1,3,4-oxadiazole]	6.63
CSc1c(-c2nnc(C3(C(F)(F)F)CCC3)o2)nn(-c2ccc(Cl)cc2Cl)c1-c1ccc(Cl)cc1 [Example 3, 2-(5-(4-chlorophenyl)-1-(2,4-dichlorophenyl)-4-(methylthio)-1H-pyrazol-3-yl)-5-(1-(trifluoromethyl)cyclobutyl)-1,3,4-oxadiazole]	9.71
CSc1c(-c2nnc(C3(c4ccc(Cl)cc4)CC3)o2)nn(-c2ccc(Cl)cc2Cl)c1-c1ccc(Cl)cc1 [Example 4, 2-(5-(4-chlorophenyl)-1-(2,4-dichlorophenyl)-4-(methylthio)-1H-pyrazol-3-yl)-5-(1-(4-chlorophenyl)cyclopropyl)-1,3,4-oxadiazole]	5.26
CSc1c(-c2nnc(C3(C(F)(F)F)CC3)o2)nn(-c2ccccc2Cl)c1-c1ccc(Cl)cc1 [Example 6, 2-(1-(2-chlorophenyl)-5-(4-chlorophenyl)-4-(methylthio)-1H-pyrazol-3-yl)-5-(1-(trifluoromethyl)cyclopropyl)-1,3,4-oxadiazole]	8.3
CSc1c(-c2nnc(C3(C(F)(F)F)CCC3)o2)nn(-c2ccccc2Cl)c1-c1ccc(Cl)cc1 [Example 7, 2-(1-(2-chlorophenyl)-5-(4-chlorophenyl)-4-(methylthio)-1H-pyrazol-3-yl)-5-(1-(trifluoromethyl)cyclobutyl)-1,3,4-oxadiazole]	4.21
CSc1c(-c2nnc(C3(c4ccc(Cl)cc4)CC3)o2)nn(-c2ccccc2Cl)c1-c1ccc(Cl)cc1 [Example 8, 2-(1-(2-chlorophenyl)-5-(4-chlorophenyl)-4-(methylthio)-1H-pyrazol-3-yl)-5-(1-(4-chlorophenyl)cyclopropyl)-1,3,4-oxadiazole]	4.61
CSc1c(-c2nnc(C(C)(C)C)o2)nn(-c2ccc(Cl)cc2Cl)c1-c1ccc(Br)cc1 [Example 9, 2-(5-(4-bromophenyl)-1-(2,4-dichlorophenyl)-4-(methylthio)-1H-pyrazol-3-yl)-5-tert-butyl-1,3,4-oxadiazole]	5.5
CSc1c(-c2nnc(C3(C(F)(F)F)CC3)o2)nn(-c2ccc(Cl)cc2Cl)c1-c1ccc(Br)cc1 [Example 10, 2-(5-(4-bromophenyl)-1-(2,4-dichlorophenyl)-4-(methylthio)-1H-pyrazol-3-yl)-5-(1-(trifluoromethyl)cyclopropyl)-1,3,4-oxadiazole]	7.95
CSc1c(-c2nnc(C3(C(F)(F)F)CCC3)o2)nn(-c2ccc(Cl)cc2Cl)c1-c1ccc(Br)cc1 [Example 11, 2-(5-(4-bromophenyl)-1-(2,4-dichlorophenyl)-4-(methylthio)-1H-pyrazol-3-yl)-5-(1-(trifluoromethyl)cyclobutyl)-1,3,4-oxadiazole]	8.44
CSc1c(-c2nnc(C3(c4ccc(Cl)cc4)CC3)o2)nn(-c2ccc(Cl)cc2Cl)c1-c1ccc(Br)cc1 [Example 12, 2-(5-(4-bromophenyl)-1-(2,4-dichlorophenyl)-4-(methylthio)-1H-pyrazol-3-yl)-5-(1-(4-chlorophenyl)cyclopropyl)-1,3,4-oxadiazole]	9.23
CSc1c(-c2nnc(C(C)(C)C)s2)nn(-c2ccc(Cl)cc2Cl)c1-c1ccc(Cl)cc1 [Example 21, 2-tert-butyl-5-(5-(4-chlorophenyl)-1-(2,4-dichlorophenyl)-4-(methylthio)-1H-pyrazol-3-yl)-1,3,4-thiadiazole]	5.19
